Source: article doi:10.1101/2024.07.14.603434v1 (biorxiv, 2024)

How the values were obtained:
NagA = molecular target: T1, NagA (Streptomyces coelicolor, UniProt Q9KXV7); assay: decrease of amide absorbance at […] nm; type: biochemical; conditions: phosphate buffer pH 7.4, 30 °C
T1 sequence (Q9KXV7 1-381): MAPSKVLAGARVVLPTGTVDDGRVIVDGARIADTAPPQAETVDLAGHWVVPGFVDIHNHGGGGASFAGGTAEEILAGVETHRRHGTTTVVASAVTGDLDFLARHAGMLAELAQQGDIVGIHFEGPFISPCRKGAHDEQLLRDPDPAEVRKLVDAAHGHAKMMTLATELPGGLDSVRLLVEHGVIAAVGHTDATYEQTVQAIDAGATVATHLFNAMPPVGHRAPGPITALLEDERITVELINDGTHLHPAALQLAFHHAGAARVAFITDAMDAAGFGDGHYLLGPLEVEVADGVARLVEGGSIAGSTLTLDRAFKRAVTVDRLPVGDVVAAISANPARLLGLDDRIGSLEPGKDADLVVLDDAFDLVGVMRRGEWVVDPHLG

NagS = molecular target: T2, NagS (Streptomyces coelicolor, UniProt Q9K3V1); assay: UV absorbance of product at […] nm; type: biochemical; conditions: 100 mM phosphate, 100 mM NaCl, pH 7.4 buffer stock; 30 °C
T2 sequence (Q9K3V1 1-251): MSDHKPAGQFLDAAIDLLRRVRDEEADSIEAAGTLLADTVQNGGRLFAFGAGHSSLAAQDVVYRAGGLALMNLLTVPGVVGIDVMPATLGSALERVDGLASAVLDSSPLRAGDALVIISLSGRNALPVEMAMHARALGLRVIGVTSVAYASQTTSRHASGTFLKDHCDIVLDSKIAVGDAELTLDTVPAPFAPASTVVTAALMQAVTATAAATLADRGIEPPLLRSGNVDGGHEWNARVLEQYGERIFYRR

Km (NagA)	Km (NagS)	Structure (SMILES)
2840 ± 410 µM	–	CC(=O)N[C@H]1C(O)O[C@H](COP(=O)(O)O)[C@H](O)[C@@H]1O (some centres unmarked) [GalNAc-6P]
1590 ± 210 µM	450 ± 30 µM	CC(=O)N[C@H]1C(O)O[C@H](COP(=O)(O)O)[C@@H](O)[C@@H]1O (some centres unmarked) [GlcNAc-6P]
2400 ± 440 µM	680 ± 50 µM	CC(=O)N[C@@H]1C(O)O[C@H](COP(=O)(O)O)[C@@H](O)[C@@H]1O (some centres unmarked) [ManNAc-6P]
